The values that follow come from patent US6337399B1, “Processes for producing 7-isoindolinequinolonecarboxylic derivatives and intermediates therefor, salts of 7-isoindolinequinolonecarboxylic acids, hydrates thereof, and composition containing the same as active ingredient” (priority 1997, dated 2002).

Series [1] is described as follows: Solubility of each salt of T-3811 in distilled water. The format is physicochemical. Conditions: for pH: pH given beside the solubility of each salt in distilled water; for solubility at 3 h: thermodynamic from solid; for solubility at a physiologically acceptable pH: compared with the other salts of T-3811, in words. On the procedure:
This sample solution is exposed to ultrasonic wave irradiation 5 (SOLID STATE 1,200, Cho-onpa Kogyo) in cold water for 3 hours and then filtered through a filter with a pore size of 0.45-μm (MILLEX-HV13, MILLIPORE).

Series [2] can be described thus: Solubility of T-3811 in the vicinity of neutral. The format is physicochemical. The conditions noted are these: in words.
The subject of series [3] is Gram-positive and Gram-negative bacteria. Conditions: background statement, in words; cited from earlier work.
Series [4] can be described thus: Stability against humidity. The conditions noted are these: in words. The format is physicochemical.
The mark [5] stands for this setting: about 50 mg salt in 2 ml distilled water, ultrasonic wave irradiation in cold water 3 hours, 0.45-μm filtrate, T-3811 content by liquid chromatography, read-out: Solubility.

Like-named read-outs stand apart in the source and are kept apart here.

`CC(=O)O.C[C@H]1NCc2cc(-c3ccc4c(=O)c(C(=O)O)cn(C5CC5)c4c3OC(F)F)ccc21` [Acetate, (R)-1-cyclopropyl-8-difluoromethoxy-7-(1-methyl-2,3-dihydro-1H-5-isoindolyl)-4-oxo-1,4-dihydro-3-quinolinecarboxylic acid acetate]: in series [1], the pH is given as 4.22. For the same molecule, the solubility at 3 h in series [1] (water) was 6230 µg/mL.
For `C[C@H]1NCc2cc(-c3ccc4c(=O)c(C(=O)O)cn(C5CC5)c4c3OC(F)F)ccc21.O=C(O)CC(O)(CC(=O)O)C(=O)O` [Citrate, (R)-1-cyclopropyl-8-difluoromethoxy-7-(1-methyl-2,3-dihydro-1H-5-isoindolyl)-4-oxo-1,4-dihydro-3-quinolinecarboxylic acid citrate], the pH in series [1] is 3.90. Also, the solubility at 3 h in series [1] (setting [5]) amounted to 420 µg/mL.
In the case of `C[C@H]1NCc2cc(-c3ccc4c(=O)c(C(=O)O)cn(C5CC5)c4c3OC(F)F)ccc21` [Example T-3811, (R)-1-cyclopropyl-8-difluoromethoxy-7-(1-methyl-2,3-dihydro-1H-5-isoindolyl)-4-oxo-1,4-dihydro-3-quinoline-carboxylic acid], the “solubility in the vicinity of neutral” value in series [2] is given as “low”. Also, the “activity against Gram-positive and Gram-negative bacteria” value in series [3] is “excellent”.
In the case of `C[C@H]1NCc2cc(-c3ccc4c(=O)c(C(=O)O)cn(C5CC5)c4c3OC(F)F)ccc21.Cl` [Hydrochloride, (R)-1-cyclopropyl-8-difluoromethoxy-7-(1-methyl-2,3-dihydro-1H-5-isoindolyl)-4-oxo-1,4-dihydro-3-quinolinecarboxylic acid hydrochloride], the pH in series [1] is reported as 3.99. Further, the solubility at 3 h in series [1] (water) amounted to 5450 µg/mL.
In the case of `C[C@H](O)C(=O)O.C[C@H]1NCc2cc(-c3ccc4c(=O)c(C(=O)O)cn(C5CC5)c4c3OC(F)F)ccc21` [L-lactate, (R)-1-cyclopropyl-8-difluoromethoxy-7-(1-methyl-2,3-dihydro-1H-5-isoindolyl)-4-oxo-1,4-dihydro-3-quinolinecarboxylic acid L-lactate], in series [1], the pH came out at 4.40. Moreover, the solubility at 3 h in series [1] (setting [5]) amounted to 1980 µg/mL.
Consider `C[C@H]1NCc2cc(-c3ccc4c(=O)c(C(=O)[O-])cn(C5CC5)c4c3OC(F)F)ccc21.C[C@H]1NCc2cc(-c3ccc4c(=O)c(C(=O)[O-])cn(C5CC5)c4c3OC(F)F)ccc21.[Mg+2]` [Magnesium salt, magnesium salt of (R)-1-cyclopropyl-8-difluoromethoxy-7-(1-methyl-2,3-dihydro-1H-5-isoindolyl)-4-oxo-1,4-dihydro-3-quinolinecarboxylic acid], for which the Solubility in series [1] (about 50 mg salt in 2 ml distilled water, ultrasonic wave irradiation in cold water 3 hours, 0.45-μm filtrate, T-3811 content by liquid chromatography) turned out to be 60 µg/mL. Moreover, the pH in series [1] was determined as 7.58.
With `CS(=O)(=O)O.C[C@H]1NCc2cc(-c3ccc4c(=O)c(C(=O)O)cn(C5CC5)c4c3OC(F)F)ccc21` [Methanesulfonate, (R)-1-cyclopropyl-8-difluoromethoxy-7-(1-methyl-2,3-dihydro-1H-5-isoindolyl)-4-oxo-1,4-dihydro-3-quinolinecarboxylic acid methanesulfonate], the “solubility at a physiologically acceptable pH” value in series [1] (listed as methanesulfonate of T-3811, methanesulfonate) is given as “much higher”; in series [1] (listed as t-3811 methanesulfonate, methanesulfonate) it was “remarkably high”. Further, the pH in series [1] was 3.66. Moreover, the solubility at 3 h in series [1] (setting [5]) amounted to 16500 µg/mL.
Turning to `C[C@H]1NCc2cc(-c3ccc4c(=O)c(C(=O)O)cn(C5CC5)c4c3OC(F)F)ccc21.O=P(O)(O)O` [Phosphate, (R)-1-cyclopropyl-8-difluoromethoxy-7-(1-methyl-2,3-dihydro-1H-5-isoindolyl)-4-oxo-1,4-dihydro-3-quinoline-carboxylic acid phosphate], the pH in series [1] was 3.29. In series [1] (setting [5]), the solubility at 3 h was determined as 8520 µg/mL.
On the same counts, the results for `C[C@H]1NCc2cc(-c3ccc4c(=O)c(C(=O)[O-])cn(C5CC5)c4c3OC(F)F)ccc21.[Na+]` [Sodium salt, sodium (R)-1-cyclopropyl-8-difluoromethoxy-7-(1-methyl-2,3-dihydro-1H-5-isoindolyl)-4-oxo-1,4-dihydro-3-quinolinecarboxylate] are 10.11 and 2340 µg/mL.
Take `C[C@H]1NCc2cc(-c3ccc4c(=O)c(C(=O)O)cn(C5CC5)c4c3OC(F)F)ccc21.O=S(=O)(O)O` [Sulfate, (R)-1-cyclopropyl-8-difluoromethoxy-7-(1-methyl-2,3-dihydro-1H-5-isoindolyl)-4-oxo-1,4-dihydro-3-quinolinecarboxylic acid sulfate]: the pH in series [1] stood at 3.46. In addition, in series [1] (setting [5]), the solubility at 3 h is 1170 µg/mL.
In the case of `CS(=O)(=O)O.C[C@H]1NCc2cc(-c3ccc4c(=O)c(C(=O)O)cn(C5CC5)c4c3OC(F)F)ccc21.O` [T-3811 methanesulfonate hydrate, (R)-1-cyclopropyl-8-difluoromethoxy-7-(1-methyl-2,3-dihydro-1H-5-isoindolyl)-4-oxo-1,4-dihydro-3-quinolinecarboxylic acid methanesulfonate monohydrate], the stability against humidity result in series [4] is reported as “good”.

In general, solubility refers to how much of the substance goes into solution per volume. In general, Solubility refers to the dissolved amount per volume that the medium holds.
